The record followed here is US8778966B2, “Quinolinone derivatives as PARP and tank inhibitors” (Janssen Pharmaceutica, NV, priority 2007, dated 2014).

Structures are written as SMILES.

In one test the test system is PC3 cells. In words: EB1 Comet (microtubule disruption) assay. To be noted: 1 hour treatment; for minimal effective concentration: Homo sapiens, PC-3, 1 h, read-out: EB1 pLAC (converted). It counts as cell-based, human. In outline:
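PC3 human prostate cancer cells exposed to compound for 1 h at 37 °C (0.6% DMSO final), methanol-fixed, immunostained for Eb1 and imaged at 20×. Value is the lowest active concentration (LAC): the concentration at which Eb1 foci are absent in at least 50% of treated cells.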

The target of another test is T1, TANK-2 enzyme (Homo sapiens, UniProt Q9H2K2).
T1 construct: made in house
T1 sequence (Q9H2K2 1-1166): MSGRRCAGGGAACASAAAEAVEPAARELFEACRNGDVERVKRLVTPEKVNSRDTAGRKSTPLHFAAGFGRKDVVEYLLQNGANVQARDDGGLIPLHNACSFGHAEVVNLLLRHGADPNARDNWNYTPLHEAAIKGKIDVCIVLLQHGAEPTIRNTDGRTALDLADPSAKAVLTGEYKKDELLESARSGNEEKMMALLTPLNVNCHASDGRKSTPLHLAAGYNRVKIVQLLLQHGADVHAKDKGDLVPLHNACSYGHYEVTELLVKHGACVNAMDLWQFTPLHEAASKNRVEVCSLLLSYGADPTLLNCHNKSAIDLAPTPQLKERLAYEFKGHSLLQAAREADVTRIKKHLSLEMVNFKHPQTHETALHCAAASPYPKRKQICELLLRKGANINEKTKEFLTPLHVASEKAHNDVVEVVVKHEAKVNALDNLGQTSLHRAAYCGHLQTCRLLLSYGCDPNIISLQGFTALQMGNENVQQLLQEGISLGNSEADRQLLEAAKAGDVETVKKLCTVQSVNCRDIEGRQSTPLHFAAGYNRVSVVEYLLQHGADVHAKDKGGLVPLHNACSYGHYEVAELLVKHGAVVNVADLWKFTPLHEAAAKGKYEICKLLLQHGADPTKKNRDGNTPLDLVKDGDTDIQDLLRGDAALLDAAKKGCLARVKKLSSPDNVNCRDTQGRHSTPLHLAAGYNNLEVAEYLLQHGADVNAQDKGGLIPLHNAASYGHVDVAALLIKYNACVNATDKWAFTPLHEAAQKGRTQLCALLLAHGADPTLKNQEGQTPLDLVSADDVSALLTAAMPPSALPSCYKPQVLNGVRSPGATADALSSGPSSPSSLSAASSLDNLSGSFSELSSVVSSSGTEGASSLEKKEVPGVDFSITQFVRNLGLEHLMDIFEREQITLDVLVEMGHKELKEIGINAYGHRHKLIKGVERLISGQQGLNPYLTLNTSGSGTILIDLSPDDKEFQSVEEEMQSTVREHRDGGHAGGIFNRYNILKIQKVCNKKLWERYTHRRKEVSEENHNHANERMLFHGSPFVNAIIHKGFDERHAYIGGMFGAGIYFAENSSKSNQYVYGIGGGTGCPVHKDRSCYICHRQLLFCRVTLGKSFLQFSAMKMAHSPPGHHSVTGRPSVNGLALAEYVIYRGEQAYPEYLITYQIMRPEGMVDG
In words: In vitro Scintillation Proximity Assay (SPA) for TANK-2 inhibitory activity. It counts as biochemical. Conditions: for IC50: read-out: in vitro SPA assay TANK-2 pIC50 (converted). The essentials:
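TANK-2 (8 μg/ml final) auto-poly(ADP-ribosyl)ation with [3H]-NAD+/NAD donor was run in Ni flash plates in Tris/HCl pH 7.4 buffer with DTT and MgCl2, 120 min at room temperature, then stopped with excess NAD and scintillation-counted. Blank-corrected cpm was expressed as % of enzyme control, and IC50 was linearly interpolated and reported as pIC50.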
(In a scintillation proximity assay essentially only radioactivity close to the scintillant gives light.)

As to `Cc1cc2ccc(C(C)(C#N)Cc3ccccc3)cc2[nH]c1=O` (stereo not drawn) [Compound 76], in the test with PC3 cells, the minimal effective concentration was 1 µM. Also, the IC50 at TANK-2 enzyme was 31.6 nM.
The like results for `CCc1cc2ccc(C(C)(C#N)Cc3ccc(OC)c(C#N)c3)cc2[nH]c1=O` (stereo not drawn) [Compound 77] were, in that order, 1 µM and 100 nM.
The like results for `CCc1cc2ccc(C(C)(C#N)Cc3cc(C)ccc3C)cc2[nH]c1=O` (stereo not drawn) [Compound 78] were, in that order, 0.1 µM and 158 nM.
In the case of `CCc1cc2ccc(C(C)(C#N)Cc3ccc(F)c(C)c3)cc2[nH]c1=O` (stereo not drawn) [Compound 79], the minimal effective concentration in the test on PC3 cells was 1 µM. Also, at TANK-2 enzyme, the IC50 was 79.4 nM.
For `CCc1cc2ccc(C(C)(C#N)Cc3cc(Cl)ccc3OC)cc2[nH]c1=O` (stereo not drawn) [Compound 80], in that order: 0.1 µM and 126 nM.
For `CCc1cc2ccc(C(C)(C#N)Cc3cccc(Br)c3C)cc2[nH]c1=O` (stereo not drawn) [Compound 81], in that order: 0.316 µM and 100 nM.
Turning to `CCc1cc2ccc(C(C)(C#N)Cc3ccc(Cl)c(C(F)(F)F)c3)cc2[nH]c1=O` (stereo not drawn) [Compound 82], the minimal effective concentration in the test on PC3 cells was 1 µM. The IC50 at TANK-2 enzyme was 398 nM.
For `CCc1cc2ccc(C(C)(C#N)Cc3ccc(C)c(F)c3F)cc2[nH]c1=O` (stereo not drawn) [Compound 83], in that order: 1 µM and 79.4 nM.
The like results for `CCc1cc2ccc(C(C)(C#N)Cc3c(C)cccc3C)cc2[nH]c1=O` (stereo not drawn) [Compound 84] were, in that order, 1 µM and 126 nM.
The like results for `CCc1cc2ccc(C(C)(C#N)Cc3nc4ccccc4o3)cc2[nH]c1=O` (stereo not drawn) [Compound 85] were, in that order, 0.316 µM and 100 nM.
On to `CCc1cc2ccc(C(C)(C#N)Cc3csc(C)n3)cc2[nH]c1=O` (stereo not drawn) [Compound 86], for which the minimal effective concentration with PC3 cells is 3.16 µM. Besides, the IC50 on TANK-2 enzyme is 158 nM.
For `CCc1cc2ccc(C(C)(C#N)Cc3ccc4nccnc4c3)cc2[nH]c1=O` (stereo not drawn) [Compound 87], in that order: 3.16 µM and 50.1 nM.
The like results for `CCc1cc2ccc(C(C)(C#N)Cc3cc(Cl)cc4c3OCOC4)cc2[nH]c1=O` (stereo not drawn) [Compound 90] were, in that order, 1 µM and 79.4 nM.
With `CCc1cc2ccc(C(C)(C#N)Cc3cc4c(cc3Cl)OCO4)cc2[nH]c1=O` (stereo not drawn) [Compound 91], the minimal effective concentration with PC3 cells is 0.1 µM. Also, the IC50 at TANK-2 enzyme is 63.1 nM.
For `CCc1cc2ccc(C(C)(C#N)Cc3cc(Cl)cc4c3OCOC4)cc2[nH]c1=O` (stereo not drawn) [Compound 92], the “EB1 pLAC” value with PC3 cells came to 6. In addition, the “in vitro SPA assay TANK-2 pIC50” value on TANK-2 enzyme came out at 7.1.
With `CCc1cc2ccc(C(C)(C#N)Cc3cc(Cl)ccc3Cl)cc2[nH]c1=O` (stereo not drawn) [Compound 99], in the test on PC3 cells, the minimal effective concentration was 0.1 µM. For the same compound, on TANK-2 enzyme, the IC50 was 79.4 nM.
Consider `CCc1cc2ccc(C(C)(C#N)Cc3ccccc3C#N)cc2[nH]c1=O` (stereo not drawn) [Compound 101], for which the minimal effective concentration in the test with PC3 cells is 1 µM. For the same compound, the IC50 on TANK-2 enzyme was 39.8 nM.
For `CCc1cc2ccc(C(C)(C#N)Cc3ccccc3OC(F)(F)F)cc2[nH]c1=O` (stereo not drawn) [Compound 102], the minimal effective concentration in the test on PC3 cells was 3.16 µM. Also, the IC50 on TANK-2 enzyme was 200 nM.
Consider `CCc1cc2ccc(C(C)(C#N)Cc3ccccc3C(F)(F)F)cc2[nH]c1=O` (stereo not drawn) [Compound 103], for which, in the test with PC3 cells, the minimal effective concentration was 0.316 µM. The IC50 on TANK-2 enzyme was 79.4 nM.
The like results for `Cc1cc2ccc(C(C)(C#N)Cc3cc4ccccc4[nH]3)cc2[nH]c1=O` (stereo not drawn) [Compound 234] were, in that order, over 10 µM and 794 nM.
Turning to `CCc1cc2ccc(C(C)(C#N)Cc3ccc(F)c(C#N)c3)cc2[nH]c1=O` (stereo not drawn) [Compound 267], the minimal effective concentration in the test with PC3 cells was 0.1 µM. For the same compound, at TANK-2 enzyme, the IC50 is 251 nM.
The like results for `CCc1cc2ccc(C(C)(C#N)CCOc3ccccc3F)cc2[nH]c1=O` (stereo not drawn) [Compound 278] were, in that order, 1 µM and 316 nM.
For `CCc1cc2ccc(C(C)(C#N)CCOc3ccc4c(c3)OCO4)cc2[nH]c1=O` (stereo not drawn) [Compound 279], the minimal effective concentration in the test with PC3 cells was 1 µM. Moreover, the IC50 at TANK-2 enzyme was 398 nM.
Turning to `CCc1cc2ccc(C(C)(C#N)Cc3cc(OC)cc(OC)c3)cc2[nH]c1=O` (stereo not drawn) [Compound 332], in the test with PC3 cells, the minimal effective concentration is 0.316 µM. Besides, the IC50 at TANK-2 enzyme was 501 nM.
